target: SYK (Homo sapiens, UniProt P43405); assay: SYK enzyme assay, coupled enzyme assay; format: biochemical; conditions: 200 μM ATP, 4 μM poly Gly-Tyr peptide, 30° C.
Protocol: Compounds were screened for their ability to inhibit SYK using a standard coupled enzyme assay (Fox et al., Protein Sci. 1998, 7, 2249). Reactions were carried out in 100 mM HEPES (pH 7.5), 10 mM MgCl2, 25 mM NaCl, 1 mM DTT and 1.5% DMSO. Final substrate concentrations in the assay were 200 μM ATP (Sigma chemical Co.) and 4 μM poly Gly-Tyr peptide (Sigma Chemical Co.). Assays were carried out at 30° C. and 200 nM SYK. Final concentrations of the components of the coupled enzyme system were 2.5 mM phosphoenolpyruvate, 300 μM NADH, 30 μg/ml pyruvate kinase and 10 μg/ml lactate dehydrogenase.
An assay stock buffer solution was prepared containing all of the reagents listed above, with the exception of SYK, DTT, and the test compound of interest of the present invention. 56 μl of the test reaction was placed in a 96 well plate followed by the addition of 1 μl of 2 mM DMSO stock containing the test compound of the present invnetion (final compound concentration 30 μM). The plate was pre-incubated for ˜10 minutes at 30° C. and the reaction initiated by the addition of 10 μl of enzyme (final concentration 25 nM). Rates of reaction were obtained using a BioRad Ultramark plate reader (Hercules, Calif.) over a 5 minute read time at 30° C., and Ki values for the compounds of the present invention were determined according to standard methods.

| Ki [nM] | Structure (SMILES) |
| --- | --- |
| 1000 to 12500 | Fc1c(Cl)cccc1-c1cnoc1-c1c[nH]c2ncccc12 [Compound 42, 3-[4-(3-Chloro-2-fluoro-phenyl)-isoxazol-5-yl]-1H-pyrrolo[2,3-b]pyridine] |

target: T1, TAK1A-TAB fusion protein (Homo sapiens, UniProt O43318); assay: TAK-1 inhibition assay, radiometric filter binding assay; format: biochemical; conditions: 50 μM ATP, 12 μM bovine myelin basic protein, 20 nM TAK1A-TAB fusion protein
T1 construct: using 20 nM TAK1A-TAB fusion protein
T1 sequence (O43318 with tags, fused parts or gaps isoform O43318-2 limits assumed): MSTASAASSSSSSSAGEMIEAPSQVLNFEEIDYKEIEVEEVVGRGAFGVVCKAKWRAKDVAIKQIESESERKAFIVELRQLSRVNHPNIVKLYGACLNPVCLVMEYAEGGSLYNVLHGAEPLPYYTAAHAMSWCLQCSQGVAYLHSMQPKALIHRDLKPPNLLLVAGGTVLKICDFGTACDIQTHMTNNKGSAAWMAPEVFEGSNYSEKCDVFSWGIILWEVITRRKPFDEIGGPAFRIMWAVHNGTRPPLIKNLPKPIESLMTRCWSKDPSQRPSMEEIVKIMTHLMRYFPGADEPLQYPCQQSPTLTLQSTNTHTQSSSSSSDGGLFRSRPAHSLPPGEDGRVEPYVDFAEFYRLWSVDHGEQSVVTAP
Protocol: Compounds were screened for their ability to inhibit TAK1A kinase activity using a radiometric filter binding assay. Reactions were carried out in a solution containing Buffer A (100 mM HEPES (pH 7.5), 10 mM MgCl2), 25 mM NaCl, 2 mM DTT, and 1.5% DMSO. Final substrate concentrations in the assay were 50 μM ATP (a mixture of unlabeled ATP (Sigma Chemicals, St Louis, Mo.) and ^33P-labeled ATP (PerkinElmer Life Sciences, Boston, Mass.) for a final specific activity of 50 Ci/mol), and 12 μM bovine myelin basic protein (MBP, Vertex Pharmaceuticals, Cambridge, Mass.). Reactions were carried out at ambient temperature (˜20° C.) using 20 nM TAK1A-TAB fusion protein. Under these conditions the extent of reaction is linear with time for a period of 2 hours.
A test compound of the present invention (1 μL in DMSO) was combined with ATP and Buffer A in a final volume of 47 μL in a 96 well plate. Typically, a 6 point titration was conducted by preparing serial dilutions (from 10 mM compound stocks) with DMSO of the test compounds of the present invention in daughter plates, for final concentrations spanning 0.046 μM to 3.73 μM. The reaction was initiated by the addition of 20 μl of an enzyme stock solution consisting of TAK1A-TAB fusion (described by Sugita, T. et al. in Biochem. Biophys. Res. Comm. 2002, 297, 1277-1281), MBP, Buffer A, NaCl, and DTT. The reaction was allowed to proceed for two hours at ambient temperature, then quenched with an equal volume of 10 mM unlabeled ATP in 10% trichloroacetic acid. A 110 μL aliquot of the quenched reaction was transferred to a Multiscreen PH filter plate (Millipore, Billerica, Mass.) and allowed to incubate at ambient temperature overnight (typically 16-20 hours). Following incubation the filter plates were washed with 3×150 μL aliquots of 5% trichloroacetic acid using a modified Biotek Elx405 plate washer. A 70 μL aliquot of Microscint 20 scintillation fluid (PerkinElmer) was added to each well, and the plate was then sealed and read on a TopCount NXT microplate scintillation counter (PerkinElmer). The Ki values were determined from the rate data as a function of inhibitor concentration.

| Ki [nM] | Structure (SMILES) |
| --- | --- |
| 200 to 1000 | Fc1cccc(-n2cnnc2-c2c[nH]c3ncc(-c4ccc(CN5CCOCC5)cc4)cc23)c1F [Compound 109, 3-[4-(2,3-Difluoro-phenyl)-4H-[1,2,4]triazol-3-yl]-5-(4-morpholin-4-ylmethyl-phenyl)-1H-pyrrolo[2,3-b]pyridine] |
| 200 to 1000 | CN(C)CC#Cc1cnc2[nH]cc(-c3oncc3-c3cccc(F)c3F)c2c1 [Compound 53, (3-{3-[4-(2,3-Difluoro-phenyl)-isoxazol-5-yl]-1H-pyrrolo[2,3-b]pyridin-5-yl}-prop-2-ynyl)-dimethyl-amine] |
| 200 to 1000 | OC1CCN(c2ccc(-c3cnc4[nH]cc(-c5nncn5-c5cccc(F)c5F)c4c3)cn2)CC1 [Compound 116, 5′-{3-[4-(2,3-Difluoro-phenyl)-4H-[1,2,4]triazol-3-yl]-1H-pyrrolo[2,3-b]pyridin-5-yl}-3,4,5,6-tetrahydro-2H-[1,2′]bi-pyridinyl-4-ol] |
| 200 to 1000 | CS(=O)(=O)n1ccc2cc(-c3cnc4[nH]cc(-c5oncc5-c5cccc(F)c5F)c4c3)cnc21 [Compound 97, 3′-[4-(2,3-Difluoro-phenyl)-isoxazol-5-yl]-1-methanesulfonyl-1H, 1′H-[5,5′]bi[pyrrolo[2,3-b]pyridinyl]] |
| 200 to 1000 | CN(C)C(=O)c1ccc(-c2cnc3[nH]cc(-c4oncc4-c4cccc(F)c4F)c3c2)nc1 [Compound 79, 6-{3-[4-(2,3-Difluoro-phenyl)-isoxazol-5-yl]-1H-pyrrolo [2,3-b]pyridin-5-yl}-N,N-dimethyl-nicotinamide] |
| 1000 to 12500 | Fc1cccc(-n2cnnc2-c2c[nH]c3ncc(-c4cccnc4)cc23)c1F [Compound 113, 3-[4-(2,3-Difluoro-phenyl)-4H-[1,2,4]triazol-3-yl]-5-pyridin-3-yl-1H-pyrrolo[2,3-b]pyridine] |
| 1000 to 12500 | Fc1cccc(-n2cnnc2-c2c[nH]c3ncc(-c4ccncc4)cc23)c1F [Compound 114, 3-[4-(2,3-Difluoro-phenyl)-4H-[1,2,4]triazol-3-yl]-5-pyridin-4-yl-1H-pyrrolo[2,3-b]pyridine] |
| 1000 to 12500 | Fc1cccc(-c2cnoc2-c2c[nH]c3ncc(C4CCNCC4)cc23)c1F [Compound 62, 3-[4-(2,3-Difluoro-phenyl)-isoxazol-5-yl]-5-piperidin-4-yl-1H-pyrrolo[2,3-b]pyridine] |
| 1000 to 12500 | CCN1CCC(c2cnc3[nH]cc(-c4oncc4-c4cccc(F)c4F)c3c2)CC1 [Compound 72, 3-[4-(2,3-Difluoro-phenyl)-isoxazol-5-yl]-5-(1-ethyl-piperidin-4-yl)-1H-pyrrolo[2,3-b]pyridine] |
| < 200 | Fc1cccc(-c2cnoc2-c2c[nH]c3ncc(C4=CCC(NCc5ccccc5)CC4)cc23)c1F (stereo not shown) [Compound 136, Benzyl-(4-{3-[4-(2,3-difluoro-phenyl)-isoxazol-5-yl]-1H-pyrrolo[2,3-b]pyridin-5-yl}-cyclohex-3-enyl)-amine] |
| 200 to 1000 | Fc1cccc(-n2cnnc2-c2c[nH]c3ncc(-c4ccc(N5CCC[C@H]5CN5CCCC5)nc4)cc23)c1F [Compound 115, 3-[4-(2,3-Difluoro-phenyl)-4H-[1,2,4]triazol-3-yl]-5-[6-(2-pyrrolidin-1-ylmethyl-pyrrolidin-1-yl)-pyridin-3-yl]-1H-pyrrolo[2,3-b]pyridine] |
| < 200 | CN1CCN(c2ccc(-c3cnc4[nH]cc(-c5nncn5-c5cccc(F)c5F)c4c3)cc2)CC1 [Compound 110, 3-[4-(2,3-Difluoro-phenyl)-4H-[1,2,4]triazol-3-yl]-5-[4-(4-methyl-piperazin-1-yl)-phenyl]-1H-pyrrolo[2,3-b]pyridine] |
| 1000 to 12500 | CN1CCN(c2ccc(-c3cnc4[nH]cc(-c5nncn5-c5cccc(F)c5F)c4c3)cn2)CC1 [Compound 112] |
| 200 to 1000 | Fc1ccc(-c2cnc3[nH]cc(-c4oncc4-c4cccc(F)c4F)c3c2)cn1 [Compound 69, 3-[4-(2,3-Difluoro-phenyl)-isoxazol-5-yl]-5-(6-fluoro-pyridin-3-yl)-1H-pyrrolo[2,3-b]pyridine] |
| 200 to 1000 | Fc1cccc(-c2cnoc2-c2c[nH]c3ncc(C4=CCC(N5CCOCC5)CC4)cc23)c1F (stereo not shown) [Compound 139, 3-[4-(2,3-Difluoro-phenyl)-isoxazol-5-yl]-5-(4-morpholin-4-yl-cyclohex-1-enyl)-1H-pyrrolo[2,3-b]pyridine] |
| < 200 | NC1CC=C(c2cnc3[nH]cc(-c4oncc4-c4cccc(F)c4F)c3c2)CC1 (stereo not shown) [Compound 137, 4-{3-[4-(2,3-Difluoro-phenyl)-isoxazol-5-yl]-1H-pyrrolo [2,3-b]pyridin-5-yl}-cyclohex-3-enylamine] |
| 200 to 1000 | CN1CCCN(c2ccc(-c3cnc4[nH]cc(-c5nncn5-c5cccc(F)c5F)c4c3)cn2)CC1 [Compound 117, 3-[4-(2,3-Difluoro-phenyl)-4H-[1,2,4]triazol-3-yl]-5-[6-(4-methyl-[1,4]diazepan-1-yl)-pyridin-3-yl]-1H-pyrrolo [2,3-b]-pyridine] |
| 1000 to 12500 | CN(C)CCNc1ccc(-c2cnc3[nH]cc(-c4nncn4-c4cccc(F)c4F)c3c2)cn1 [Compound 119, N′-(5-{3-[4-(2,3-Difluoro-phenyl)-4H-[1,2,4]triazol-3-yl]-1H-pyrrolo[2,3-b]pyridin-5-yl}-pyridin-2-yl)-N,N-dimethyl-ethane-1,2-diamine] |
| < 200 | CS(=O)(=O)NC1CC=C(c2cnc3[nH]cc(-c4oncc4-c4cccc(F)c4F)c3c2)CC1 (stereo not shown) [Compound 140, N-(4-{3-[4-(2,3-Difluoro-phenyl)-isoxazol-5-yl]-1H-pyrrolo[2,3-b]pyridin-5-yl}-cyclohex-3-enyl)-methanesulfonamide] |
| < 200 | CN(C)C1CC=C(c2cnc3[nH]cc(-c4oncc4-c4cccc(F)c4F)c3c2)CC1 (stereo not shown) [Compound 138, (4-{3-[4-(2,3-Difluoro-phenyl)-isoxazol-5-yl]-1H-pyrrolo[2,3-b]pyridin-5-yl}-cyclohex-3-enyl)-dimethyl-amine] |
| 200 to 1000 | COc1ccnc(-c2cnc3[nH]cc(-c4oncc4-c4cccc(F)c4F)c3c2)c1 [Compound 78, 3-[4-(2,3-Difluoro-phenyl)-isoxazol-5-yl]-5-(4-methoxy-pyridin-2-yl)-1H-pyrrolo[2,3-b]pyridine] |
| 200 to 1000 | Fc1cccc(-n2cnnc2-c2c[nH]c3ncc(-c4ccc(N5CCCC5)nc4)cc23)c1F [Compound 118, 3-[4-(2,3-Difluoro-phenyl)-4H-[1,2,4]triazol-3-yl]-5-(6-pyrrolidin-1-yl-pyridin-3-yl)-1H-pyrrolo[2,3-b]pyridine] |
| 200 to 1000 | COc1cnc2[nH]cc(-c3oncc3-c3cccc(Cl)c3Cl)c2c1 [Compound 49, 3-[4-(2,3-Dichloro-phenyl)-isoxazol-5-yl]-5-methoxy-1H-pyrrolo[2,3-b]pyridine] |
| 200 to 1000 | Oc1cnc2[nH]cc(-c3oncc3-c3cccc(Cl)c3Cl)c2c1 [Compound 48, 3-[4-(2,3-Dichloro-phenyl)-isoxazol-5-yl]-1H-pyrrolo[2,3-b]pyridin-5-ol] |
